In brackets after ≈: the same amount, converted by molar mass.
Tests used:
Format in all cases: functional
Escherichia coli = assay: Antimicrobial activity against Escherichia coli MTCC 443 by broth microdilution technique
Pseudomonas aeruginosa = assay: Antimicrobial activity against Pseudomonas aeruginosa MTCC 1688 by broth microdilution technique
Staphylococcus aureus = assay: Antimicrobial activity against Staphylococcus aureus MTCC 96 by broth microdilution technique
Bacillus subtilis = assay: Antimicrobial activity against Bacillus subtilis MTCC 441 by broth microdilution technique
Candida albicans = assay: Antimicrobial activity against Candida albicans MTCC 227 by broth serial dilution technique

Molecule	MIC50 (Escherichia coli) [µg/mL]	MIC50 (Pseudomonas aeruginosa) [µg/mL]	MIC50 (Staphylococcus aureus) [µg/mL]	MIC50 (Bacillus subtilis) [µg/mL]	MIC50 (Candida albicans) [µg/mL]
O=C(O)c1cn(C2CC2)c2cc(N3CCNCC3)c(F)cc2c1=O [CIPROFLOXACIN]	25 (≈ 75.4 µM)	25 (≈ 75.4 µM)	50 (≈ 151 µM)	50 (≈ 151 µM)	
Cc1cc(C)c(O)c(C(=O)c2cnn(-c3ccc(F)c(F)c3)c2)c1	500 (≈ 1520 µM)	250 (≈ 761 µM)	500 (≈ 1520 µM)	500 (≈ 1520 µM)	1000 (≈ 3050 µM)
O=C(N[C@H](CO)[C@H](O)c1ccc([N+](=O)[O-])cc1)C(Cl)Cl [CHLORAMPHENICOL]	50 (≈ 155 µM)	50 (≈ 155 µM)	50 (≈ 155 µM)	50 (≈ 155 µM)	
Cc1ccc2oc(-c3cnn(-c4ccc(F)c(F)c4)c3)nc2c1	500 (≈ 1610 µM)	62.5 (≈ 201 µM)	50 (≈ 161 µM)	200 (≈ 642 µM)	500 (≈ 1610 µM)
O=C(c1cnn(-c2ccc(F)c(F)c2)c1)c1cc(F)cc(Cl)c1O	500 (≈ 1420 µM)	500 (≈ 1420 µM)	1000 (≈ 2840 µM)	500 (≈ 1420 µM)	250 (≈ 709 µM)
O/N=C(/c1cnn(-c2ccc(F)c(F)c2)c1)c1cc(Br)ccc1O	200 (≈ 507 µM)	100 (≈ 254 µM)	500 (≈ 1270 µM)	1000 (≈ 2540 µM)	500 (≈ 1270 µM)
O/N=C(/c1cnn(-c2ccc(F)c(F)c2)c1)c1ccccc1O	500 (≈ 1590 µM)	500 (≈ 1590 µM)	> 1000	> 1000	1000 (≈ 3170 µM)
GENTAMICIN	0.05	1	0.25	1	
O/N=C(/c1cnn(-c2ccc(F)c(F)c2)c1)c1cc(F)ccc1O	500 (≈ 1500 µM)	500 (≈ 1500 µM)	500 (≈ 1500 µM)	250 (≈ 750 µM)	1000 (≈ 3000 µM)
O=C(c1cnn(-c2ccc(F)c(F)c2)c1)c1cc(Br)ccc1O	500 (≈ 1320 µM)	500 (≈ 1320 µM)	125 (≈ 330 µM)	100 (≈ 264 µM)	> 1000
Cc1ccc(/C(=N\O)c2cnn(-c3ccc(F)c(F)c3)c2)c(O)c1	25 (≈ 75.9 µM)	50 (≈ 152 µM)	250 (≈ 759 µM)	500 (≈ 1520 µM)	500 (≈ 1520 µM)
NYSTATIN					100
Fc1ccc(-n2cc(-c3nc4ccccc4o3)cn2)cc1F	125 (≈ 421 µM)	100 (≈ 336 µM)	125 (≈ 421 µM)	200 (≈ 673 µM)	1000 (≈ 3360 µM)
Cc1ccc(C(=O)c2cnn(-c3ccc(F)c(F)c3)c2)c(O)c1	125 (≈ 398 µM)	62.5 (≈ 199 µM)	200 (≈ 636 µM)	100 (≈ 318 µM)	500 (≈ 1590 µM)
CC1(C)S[C@@H]2[C@H](NC(=O)[C@H](N)c3ccccc3)C(=O)N2[C@H]1C(=O)O [AMPICILLIN]	100 (≈ 286 µM)	100 (≈ 286 µM)	250 (≈ 715 µM)	250 (≈ 715 µM)	
Cc1ccc2nc(-c3cnn(-c4ccc(F)c(F)c4)c3)oc2c1	200 (≈ 642 µM)	500 (≈ 1610 µM)	200 (≈ 642 µM)	25 (≈ 80.3 µM)	500 (≈ 1610 µM)
O=C(c1cnn(-c2ccc(F)c(F)c2)c1)c1cc(F)ccc1O	62.5 (≈ 196 µM)	50 (≈ 157 µM)	100 (≈ 314 µM)	62.5 (≈ 196 µM)	500 (≈ 1570 µM)
O/N=C(/c1cnn(-c2ccc(F)c(F)c2)c1)c1cc(Cl)ccc1O	12.5 (≈ 35.7 µM)	125 (≈ 357 µM)	100 (≈ 286 µM)	62.5 (≈ 179 µM)	1000 (≈ 2860 µM)
Fc1ccc(-n2cc(-c3nc4cc(Br)ccc4o3)cn2)cc1F	250 (≈ 665 µM)	250 (≈ 665 µM)	250 (≈ 665 µM)	250 (≈ 665 µM)	500 (≈ 1330 µM)
COC1=CC(=O)C[C@@H](C)[C@]12Oc1c(Cl)c(OC)cc(OC)c1C2=O [GRISEOFULVIN]					500 (≈ 1420 µM)
Fc1ccc(-n2cc(-c3nc4cc(Cl)ccc4o3)cn2)cc1F	100 (≈ 301 µM)	125 (≈ 377 µM)	125 (≈ 377 µM)	200 (≈ 603 µM)	500 (≈ 1510 µM)
O=C(c1cnn(-c2ccc(F)c(F)c2)c1)c1cc(Cl)ccc1O	250 (≈ 747 µM)	500 (≈ 1490 µM)	1000 (≈ 2990 µM)	500 (≈ 1490 µM)	500 (≈ 1490 µM)
Fc1ccc2oc(-c3cnn(-c4ccc(F)c(F)c4)c3)nc2c1	250 (≈ 793 µM)	50 (≈ 159 µM)	500 (≈ 1590 µM)	200 (≈ 634 µM)	250 (≈ 793 µM)
O=C(c1cnn(-c2ccc(F)c(F)c2)c1)c1ccccc1O	250 (≈ 833 µM)	555 (≈ 1850 µM)	500 (≈ 1670 µM)	12.5 (≈ 41.6 µM)	100 (≈ 333 µM)
Cc1ccc(O)c(C(=O)c2cnn(-c3ccc(F)c(F)c3)c2)c1	500 (≈ 1590 µM)	250 (≈ 795 µM)	500 (≈ 1590 µM)	500 (≈ 1590 µM)	1000 (≈ 3180 µM)
CCn1cc(C(=O)O)c(=O)c2cc(F)c(N3CCNCC3)cc21 [NORFLOXACIN]	10 (≈ 31.3 µM)	10 (≈ 31.3 µM)	10 (≈ 31.3 µM)	100 (≈ 313 µM)	
